Here are results for 15 compounds from patent US4871740A, “Glycyrrhetic acid derivatives and use thereof” (Sanwa Kagaku Kenkyusho Co., Ltd., priority 1986, dated 1989).

One experiment relates to stress ulcer in rats. Description: Action to stress ulcer in rats (restraint and water immersion). The conditions noted are these: Rattus norvegicus, po, 30 minutes before restraint, inhibition ratio, read-out: Ulcer Index (%). The format is in vivo, Male Wister rats. The method, then:
(Action to stress ulcer in rats)
Male Wister rats weighing about 180 g (age: 6 weeks) were used for this experiment.
Ten rats in each group were deprived of food for 24 hours before the experiment. They were immobilized in a restraint cage and immersed for 7 hours to the height of the xiphoid in a water bath kept at 23±1°C. After inflation with 10 ml of 1% formalin, the isolated stomach was opened along the greater curvature. The ulcer index (UI) was determined as the sum of the length (mm) of each erosion per rat. Each of the compounds to be tested was suspended in 5% gum arabic solution and given orally 30 minutes before restraint. Control animals received the same solution without any drug or the test compound.
(§1) Inhibition ratio is expressed as follows. [formula]

In another experiment the test system is gastric necrosis in rats. The experiment in a line: Action to gastric necrosis in rats (absolute ethanol). It counts as in vivo, Male Sprague-Dewley rats. The following applies: po, 1 hour before absolute ethanol, inhibition ratio. As for the experimental part:
(Action to gastric necrosis in rats)
Male Sprague-Dewley rats weighing about 250 g were used for this experiment.
Ten rats in each group were deprived of food for 24 hours before the experiment. Each of the compounds to be tested was suspended in 5% gum arabic solution and given orally to the test animal. After 1 hours from the administration of the compound. 1 ml of absolute ethanol was administered orally and the animals were killed 1 hour later from the ethanol administration. After inflation with 10 ml of 1% formalin, the isolated stomach was opened along the greater curvature. The ulcer index (UI) was determined as the sum of the length (mm) of each erosion per rat. […]. Control animals received the same solution without any drug or the test compound.
as §1

Where a name gives a salt, the structure may show the parent alone.

For the compound `COc1ccccc1N1CCN(C(=O)[C@@]2(C)CC[C@]3(C)CC[C@]4(C)C(=CC[C@@H]5[C@@]6(C)CC[C@H](O)C(C)(C)[C@@H]6CC[C@]54C)[C@@H]3C2)CC1` [Compound 2i, 1-(3β-hydroxy-18β-olean-12-en-30-oyl)-4-(o-methoxyphenyl)piperazine], in the experiment on stress ulcer in rats, the inhibition in vivo at 25 mg/kg was -18%, the inhibition in vivo at 50 mg/kg stood at 4.9% and the inhibition in vivo at 100 mg/kg was 46.4%.
For `CC(C)=CCCC(C)=CCSCCNC(=O)[C@@]1(C)CC[C@]2(C)CC[C@]3(C)C(=CC[C@@H]4[C@@]5(C)CC[C@H](OC(=O)/C=C\C(=O)O)C(C)(C)[C@@H]5CC[C@]43C)[C@@H]2C1` [Compound 4a, N-[2-(3,7-Dimethyl-2,6-octadien-1-ylthio)ethyl]-3β-(3-carboxy-cis-propenoyloxy)-18β-olean-12-en-30-amide sodium salt], in the experiment on stress ulcer in rats, the inhibition in vivo at 25 mg/kg turned out to be 21.1%, the inhibition in vivo at 50 mg/kg turned out to be 58.2% and the inhibition in vivo at 100 mg/kg worked out at 73.1%.
On the same counts, the results for `CC(C)=CCCC(C)=CCCC(C)=CCSCCNC(=O)[C@@]1(C)CC[C@]2(C)CC[C@]3(C)C(=CC[C@@H]4[C@@]5(C)CC[C@H](OC(=O)/C=C\C(=O)O)C(C)(C)[C@@H]5CC[C@]43C)[C@@H]2C1` [Compound 4b] are 51%, 62.6% and 60.5%.
With `CC(C)=CCCC(C)=CCCC(C)=CCCC(C)=CCSCCNC(=O)[C@@]1(C)CC[C@]2(C)CC[C@]3(C)C(=CC[C@@H]4[C@@]5(C)CC[C@H](OC(=O)/C=C\C(=O)O)C(C)(C)[C@@H]5CC[C@]43C)[C@@H]2C1` [Compound 4c], in the experiment with stress ulcer in rats, the inhibition in vivo at 12.5 mg/kg came to 33.3%, the inhibition in vivo at 25 mg/kg is 30.5%, the inhibition in vivo at 50 mg/kg came out at 46.8% and the inhibition in vivo at 100 mg/kg was 61%. Moreover, in the experiment on gastric necrosis in rats (25 mg/kg), the “Ulcer Index (%)” value stood at 43.3%. Also, the “Ulcer Index (%)” value in the experiment with gastric necrosis in rats (50 mg/kg) was 66.1%. In addition, the “Ulcer Index (%)” value with gastric necrosis in rats (100 mg/kg) amounted to 48.9%.
For the compound `CC(C)=CCCC(C)=CCCC(C)=CCCC(C)=CCCC(C)=CCCC(C)=CCCC(C)=CCCC(C)=CCCC(C)=CCSCCNC(=O)C1(C)CCC2(C)CCC3(C)C(=CCC4C5(C)CCC(OC(=O)C=CC(=O)O)C(C)(C)C5CCC43C)C2C1` (stereo not shown) [Compound 4d], in the experiment with stress ulcer in rats, the inhibition in vivo at 12.5 mg/kg worked out at 33.9%, the inhibition in vivo at 25 mg/kg came out at 55.4%, the inhibition in vivo at 50 mg/kg stood at 42.1% and the inhibition in vivo at 100 mg/kg stood at 56.2%. The “Ulcer Index (%)” value in the experiment with gastric necrosis in rats (25 mg/kg) is given as 31.7%. In the experiment with gastric necrosis in rats (50 mg/kg), the “Ulcer Index (%)” value is on record as 20.6%. Moreover, in the experiment with gastric necrosis in rats (100 mg/kg), the “Ulcer Index (%)” value is given as 39.2%.
Regarding `CC(C)=CCCC(C)=CCCC(C)=CCCC(C)=CCCC(C)=CCCC(C)=CCCC(C)=CCCC(C)=CCCC(C)=CCCC(C)=CCSCCNC(=O)C1(C)CCC2(C)CCC3(C)C(=CCC4C5(C)CCC(OC(=O)C=CC(=O)O)C(C)(C)C5CCC43C)C2C1` (stereo not shown) [Compound 4e], in the experiment with stress ulcer in rats, the inhibition in vivo at 12.5 mg/kg stood at 50%, the inhibition in vivo at 25 mg/kg was found to be 44.7%, the inhibition in vivo at 50 mg/kg came out at 53.5% and the inhibition in vivo at 100 mg/kg stood at 60.5%. For the same compound, in the experiment with gastric necrosis in rats (25 mg/kg), the “Ulcer Index (%)” value amounted to 21.3%. The “Ulcer Index (%)” value in the experiment with gastric necrosis in rats (50 mg/kg) is listed as -9.5%. Moreover, in the experiment on gastric necrosis in rats (100 mg/kg), the “Ulcer Index (%)” value is reported as -34.7%.
As for `CC(=CCSCCNC(=O)[C@@]1(C)CC[C@]2(C)CC[C@]3(C)C(=CC[C@@H]4[C@@]5(C)CC[C@H](OC(=O)/C=C\C(=O)O)C(C)(C)[C@@H]5CC[C@]43C)[C@@H]2C1)CCCC(C)CCCC(C)CCCC(C)C` (stereo partly shown) [Compound 4f], in the experiment on stress ulcer in rats, the inhibition in vivo at 25 mg/kg turned out to be 16.5%, the inhibition in vivo at 50 mg/kg was found to be 4.3% and the inhibition in vivo at 100 mg/kg was 34.5%.
Take `CC(C)=CCCC(C)=CCCC(C)=CCN1CCN(C(=O)[C@@]2(C)CC[C@]3(C)CC[C@]4(C)C(=CC[C@@H]5[C@@]6(C)CC[C@H](OC(=O)/C=C\C(=O)O)C(C)(C)[C@@H]6CC[C@]54C)[C@@H]3C2)CC1` [Compound 4g]: in the experiment on stress ulcer in rats, the inhibition in vivo at 12.5 mg/kg was 11.7%, the inhibition in vivo at 25 mg/kg came to 22.5% and the inhibition in vivo at 50 mg/kg came to 21.6%.
`CC(C)=CCCC(C)=CCCC(C)=CCOC(=O)[C@@]1(C)CC[C@]2(C)CC[C@]3(C)C(=CC[C@@H]4[C@@]5(C)CC[C@H](OC(=O)/C=C\C(=O)O)C(C)(C)[C@@H]5CC[C@]43C)[C@@H]2C1` [Compound 4h]: in the experiment on stress ulcer in rats, the inhibition in vivo at 12.5 mg/kg was 8%, the inhibition in vivo at 25 mg/kg came out at 6.1% and the inhibition in vivo at 50 mg/kg turned out to be 35.7%.
On to `COc1ccccc1N1CCN(C(=O)[C@@]2(C)CC[C@]3(C)CC[C@]4(C)C(=CC[C@@H]5[C@@]6(C)CC[C@H](OC(=O)/C=C\C(=O)O)C(C)(C)[C@@H]6CC[C@]54C)[C@@H]3C2)CC1` [Compound 4i], for which, in the experiment with stress ulcer in rats, the inhibition in vivo at 25 mg/kg came to 24.4%, the inhibition in vivo at 50 mg/kg is 61.4% and the inhibition in vivo at 100 mg/kg was 76.5%.
Regarding `CC(C)=CCCC(C)=CCCC(C)=CCCC(C)=CCCC(C)=CCCC(C)=CCCC(C)=CCCC(C)=CCCC(C)=CCCC(C)=CCSCCNC(=O)C1(C)CCC2(C)CCC3(C)C(=CC(=O)C4C5(C)CCC(OC(=O)C=CC(=O)O)C(C)(C)C5CCC43C)C2C1` (stereo not shown) [Compound 4k], in the experiment with stress ulcer in rats, the inhibition in vivo at 12.5 mg/kg worked out at 48.5%, the inhibition in vivo at 25 mg/kg is 45.5%, the inhibition in vivo at 50 mg/kg is 43.6% and the inhibition in vivo at 100 mg/kg amounted to 56.4%. For the same compound, the “Ulcer Index (%)” value in the experiment on gastric necrosis in rats (25 mg/kg) is on record as 58.7%. Further, the “Ulcer Index (%)” value in the experiment with gastric necrosis in rats (50 mg/kg) came out at 10.9%. For the same compound, the “Ulcer Index (%)” value in the experiment with gastric necrosis in rats (100 mg/kg) was determined as 14.3%.
Turning to `COc1ccccc1N1CCN(C(=O)[C@@]2(C)CC[C@]3(C)CC[C@]4(C)C(=CC(=O)[C@@H]5[C@@]6(C)CC[C@H](OC(=O)/C=C\C(=O)O)C(C)(C)[C@@H]6CC[C@]54C)[C@@H]3C2)CC1` [Compound 4l], in the experiment on stress ulcer in rats, the inhibition in vivo at 12.5 mg/kg was 6.3%, the inhibition in vivo at 25 mg/kg is 25.9% and the inhibition in vivo at 50 mg/kg was found to be 31.7%.
For the compound `COc1ccccc1N1CCN(C(=O)[C@@]2(C)CC[C@]3(C)CC[C@]4(C)C(=CC[C@@H]5[C@@]6(C)CC[C@H](OC(=O)CCC(=O)O)C(C)(C)[C@@H]6CC[C@]54C)[C@@H]3C2)CC1` [Compound 4m, sodium salt], in the experiment with stress ulcer in rats, the inhibition in vivo at 25 mg/kg worked out at 9.5%, the inhibition in vivo at 50 mg/kg came to 26.5% and the inhibition in vivo at 100 mg/kg was found to be 23.2%.
As to `CC1(C)[C@@H](OCC(=O)O)CC[C@]2(C)[C@H]3CC=C4[C@@H]5C[C@@](C)(C(=O)O)CC[C@]5(C)CC[C@@]4(C)[C@]3(C)CC[C@@H]12` [Compound 6, 3β-(carboxymethoxy)-18β-olean-12-en-30-oic acid disodium salt], in the experiment with stress ulcer in rats, the inhibition in vivo at 25 mg/kg worked out at 7.2%, the inhibition in vivo at 50 mg/kg came to 42.5% and the inhibition in vivo at 100 mg/kg was 59.8%.
On the same counts, the results for `CC1(C)[C@@H](OCCC(=O)O)CC[C@]2(C)[C@H]3CC=C4[C@@H]5C[C@@](C)(C(=O)O)CC[C@]5(C)CC[C@@]4(C)[C@]3(C)CC[C@@H]12` [Compound 9, 3β-(2-Carboxyethoxy)-18β-olean-12-en-30-oic acid disodium salt] are -0.7%, 11.8% and 26.1%.
